According to publication PMC11390765 (Cancer Chemotherapy and Pharmacology, 2024):

Columns and labels:
advanced solid tumors = experiment: Exploratory efficacy (RECIST 1.1, investigator assessment); format: in vivo, human; conditions: capivasertib 400 mg BID 4 days on/3 days off
Method: Efficacy was evaluated as an exploratory endpoint by investigator assessment, and per Response Evaluation Criteria in Solid Tumors (RECIST) version 1.1. Tumor assessments were performed by CT and/or MRI scans at screening and then every 8 weeks (± 7 days; earlier if clinically indicated) for 2 years, and then every 12 weeks until disease progression. Radiographic bone scans were performed at screening and repeated as clinically indicated, depending on tumor type.
Safety analyses were performed on the full analysis set, which consisted of all patients who received at least one dose of midazolam and/or capivasertib, irrespective of protocol adherence or continued participation in the study. Efficacy analyses were also performed on the full analysis set. Summary and/or descriptive statistics were used to analyze baseline demographic, safety, and efficacy data; PFS and DoR were estimated using Kaplan–Meier methodology.

[1] = system: all three isoforms of AKT; design: method as in PMID 22294718; conditions: cited from earlier work

NC1(C(=O)N[C@@H](CCO)c2ccc(Cl)cc2)CCN(c2nc[nH]c3nccc2-3)CC1 [capivasertib]
Median DoR (95% CI) (advanced solid tumors): 3.8 months
patients with confirmed partial response to treatment (advanced solid tumors): Two
CBR (95% CI) at 24 weeks (advanced solid tumors; full analysis set): 14.3%
ORR (95% CI) (advanced solid tumors; full analysis set): 9.5%
median PFS (95% CI) (advanced solid tumors; full analysis set, 15 PFS events): 3.4 months
inhibition of AKT isoforms [1]: potent, selective inhibitor
